The subject of one assay is p53. The assay can be described thus: Western blot of p53 (p21, MDM2) levels. The following applies: RKO-E6 cells; in words. The assay is classed as cell-based, human. As to the method: Protein content was quantified using a BioRad protein assay reagent (BioRad, cat #500-0006). Equal amounts of protein were resolved on SDS-polyacrylamide gels. Proteins were transferred onto a PVDF membrane, blocked with 5% milk, and incubated with the appropriate primary and secondary antibodies. […] To test for equivalent loading in each lane, blots were stripped, blocked and probed with an anti-eIF-4E antibody.
Background: Immunoblotting shows a protein as a band on a membrane.

Assay [1] deals with RKO-E6 cells. The assay can be described thus: Flow cytometry cell cycle distribution, RKO-E6. Type of assay: cell-based, human. The conditions noted are these: 24 h, propidium iodide. The procedure: RKO, RKO-E6 or HeLa cells were seeded in 20-cm dishes in 10 ml of growth medium. Cells were allowed to adhere and then treated with the selected compounds for 24 h. The treated cells were collected, washed 2× with PBS and counted. The cell pellet was re-suspended in 500 μl of ice cold PBS and 2-5 ml of cold 70% ethanol (−20° C.) were added. Cells were fixed for 1 h or overnight. 5-10 million cells were placed into a 15-ml conical tube and centrifuged at 1000 g. Cells were washed 2× with 1% calf serum in PBS. Cells were resuspended in 800 μl of 1% calf serum in PBS and 100 μl of Rnase (1 mg/ml) and 100 μl of propidium iodide (400 μg/ml) added. Cells were incubated at 37° C. for 30 min and then analyzed on flow cytometer.
In general terms: Flow cytometry measures light scatter and fluorescence of single cells or particles in a stream.

Assay [2] relates to RKO-E6 cells. Nature of the assay: Alamar Blue viability assay, RKO-E6. The assay is classed as cell-based, human. The conditions noted are these: for inhibition at 0.5 µg/mL: Homo sapiens, RKOE6, 0.5 μg/ml alone, read-out: growth inhibition by drug alone. As to the method: RKO colon carcinoma, human (ATCC, order # CRL-2577), RKO-E6 colon carcinoma transfected with HPV E6 inserted in pCMV.3 (ATCC, order # CRL-2578) were grown in MEM with 2 mM L-glutamine and Earle's BBS adjusted to contain 1.5 g/L NaHCO3, 0.1 mM non-essential amino acids and 1.0 mM sodium pyruvate, and supplemented with 10% fetal bovine serum, penicillin and streptomycin (pen/strep). Both cell lines were incubated at 37° C. in a humidified incubator containing 5% CO2.
The Alamar Blue assay incorporates a fluorimetric/colorimetric growth indicator that changes color in the response to chemical reduction by viable cells (Nociari 1998). Cells were seeded at a density of 3,000 cells (57 μl) per well in a 384-well black, clear-bottom plates using a syringe bulk dispenser (Zymark Sciclone ALH). Three microliters were removed from a compound daughter plate using a 384 fixed cannula head and added to the assay plate, making the final concentration 4 μg/ml. The plates were incubated for 24 h at 37° C. 10 μl of 40% Alamar Blue (Biosource Int., cat #DAL1100) solution in media was added to each well (1:10 dilution). The assay plates were incubated for 16h. Fluorescence intensity was determined using a Packard Fusion platereader with a 535 nm excitation filter and a 590 nm emission filter. The average fluorescence for the whole plate was used as a positive control. Average percentage inhibition for each well was determined using our freely available SLIMS software (Kelley et al., 2004).
The daughter plates for the 2-fold dilution series were prepared with a Zymark Sciclone ALH by diluting the replica daughter plates to obtain compound concentrations from 8 μg/ml-0.008 μg/ml (columns 8-18). Columns 1-7 were used as untreated control. RKO-E6 cells were seeded at the density of 3,000 per well in 55 μl, and 5 μl were added from the daughter plate. RKO cells were seeded at the density of 2,000 per well in 55 μl, and 5 μl were added from the daughter plate. The assay was incubated for 24 h at 37° C. 10% Alamar Blue was added to each well and the assay was incubated for 16 h (see above). Compounds for retesting were purchased from the manufacturers or from Sigma-Aldrich (see above). Stocks were prepared in DMSO at 4 mg/ml.
Each cell line (RKO, RKO-E6, HeLa and TC32) was treated with a dose combination matrix of doxorubicin and a selected hit compound. Each treatment was done in a triplicate in 384-well format. The average percent inhibition of cell proliferation, measured with Alamar Blue, was determined using the following formula: […]
On the technique in general: Resazurin is reduced to fluorescent resorufin, in cell work by metabolically active cells.

Assay [3] concerns PC12 expressing Q103 exon 1 htt. The assay can be described thus: PC12 HD model, Alamar Blue viability. Type of assay: cell-based. The conditions noted are these: for EC50: Rattus norvegicus, PC-12, unit inferred; for PC12 rescue: percent increase in viability in compound treated cells above DMSO treated: — = no activity in the assay (footnote n.a.). The procedure: For enhanced stability the repeat portion consists of alternating CAG/CAA repeats. […] Mutant (mut) htt was induced by the ecdysone receptor agonist, tebufenozide.
For the PC12 assay, 7500 cells/well were plated in 384-well plates in 57 μl of PC12 medium with tebufenozide (1 μM). Compounds (3 μl) from daughter plates were added to the cells and incubated at 37° C. After 48 h, 20 μl of 40% Alamar Blue (Biosource, CA) in PC12 media was added per well and cells incubated for 12 h at 37° C. […] Fluorescence intensity was determined using a Packard Fusion plate reader with an excitation filter centered on 535 nm and an emission filter centered on 590 nm. Average percentage inhibition at each concentration was calculated.

The subject of a further assay is N548 mutant cells. Nature of the assay: cells. The following applies: for maximal fold induction: 72 h, read-out: N548 Mut: Max, maximum rescue expressed as fold over DMSO treated N548 mutant cells; for EC50: read-out: EC50 based on activity in N548 mutant cells; for selectivity profile of cell death rescue in panel of htt expressing cell lines: N63, N548, FL htt cell lines, in words. As to the method: Embryonic rat striatal neurons were conditionally immortalized by stably transfecting a temperature-sensitive SV40 large T-antigen (T-ag) to generate the ST14A cell line. ST14A cells proliferate at the permissive temperature (33° C.), but stop dividing at 39° C., as a result of T-ag degradation. […] As htt protein context modulates polyQ toxicity, testing these different length htt proteins could provide insight into the basis for context dependence.
ST14A Assay System: Calcein acetoxylmethyl ester (AM) (Molecular Probes, Eugene, Oreg.) is a non-fluorescent, membrane-permeable compound that is cleaved by intracellular esterases, which subsequently forms the anionic, fluorescent compound, calcein, that cannot permeate the cell membrane. […] A fluorescence viability assay, that is based on conversion of a non-fluorescent substrate (calcein AM) to a fluorescent product by nonspecific esterases in live cells, was employed to monitor cell death in wild type (wt) ST14A-Htt and mut ST14A-Htt cell lines. Cell death is indicated by a decrease in fluorescence. […] 3 μl of each compound was transferred from daughter plates to triplicate assay plates for a final assay concentration of 4 μg/ml in 0.1% DMSO (10 μM for NINDS compounds). Cells were incubated at 33° C. for 3 h to enhance attachment and then shifted to 39° C. (with 5% CO2). After 3 days (d), cells were washed 10 times with phosphate buffered saline (PBS) leaving 20 μl residual PBS per well, and 20 μl of 2 μg/ml calcein AM (Molecular probes) in PBS was added per well. […] The fluorescence intensity in each well was normalized to the median of each plate. The median normalized fluorescence of each triplicate assay wells was determined. A well with more than 50% increase in intensity above the median signal intensity was considered a “hit.”
Assay Development: An assay was developed for detecting mutant htt-induced cell death in ST14A cells in a 384-well plate format. A calcein AM-based method was used to detect cell viability, and optimized the cell number and time course for this method. […] A cell number titration was performed to determine the cell density at which calcein fluorescence was not saturated and the coefficient of variation (CV) was low (FIG. 14A-B). A low CV is critical for a high-throughput assay as it decreases noise and enhances sensitivity. […] Next, the kinetics of the fluorescence signal were determined.
Next, the serum concentrations that induce cell death in these cells were determined. Cells were seeded in decreasing serum (IFS) concentrations (5 to 0%), and cell viability was assayed after 3 d using the calcein AM assay (FIG. 14E).
A Z′ value of greater than 0 is required for a usable assay, with a maximum value of 1.0 for an ideal assay. For the assay, calcein fluorescence was used on the day of seeding to represent 100% rescue. The difference in calcein fluorescence signal on the day of seeding and after different number of days under serum deprivation was determined and used to calculate the Z′ factor. […] About 47,000 compounds were assayed in a 384-well plate format in triplicate to enhance the reliability of the primary screen.

Assay [4] has as its system microtubules in N548 mutant cells. Nature of the assay: β-tubulin indirect immunofluorescence. The conditions noted are these: colchicine 400 nM, revertin-22 4 μg/ml, 8 h. The assay is classed as cell-based, rat. As to the method:
Cells were grown on glass coverslips in 10% IFS-containing media, treated with compounds and fixed in acetone/methanol (1:1 vol/vol). β-tubulin was detected using a mouse monoclonal antibody (clone TUB2.1, Sigma-Aldrich) followed by a rhodamine-conjugated goat anti-mouse antibody (Jackson Laboratory; Bar Harbor, Me.). Cells were viewed under a fluorescent microscope (ex 530/em 595 nm).

≈ marks a conversion by molar mass, not a printed value.

`CC(C)(C)CC(C)(C)c1ccc(OCCOCC[N+](C)(C)Cc2ccccc2)cc1` [benzethonium chloride]: the “p53, p21, MDM2 levels” value in the assay on p53 was “did not upregulate p53, p21, or caspase 3”. Also, the “cell cycle effect in RKO-E6 cells” value in the assay on RKO-E6 cells [1] was “did not induce cell cycle arrest”.

What is called inhibition is the percentage by which the read-out fell short of the control. `CC[C@@]1(O)C(=O)OCc2c1cc1n(c2=O)Cc2cc3ccccc3nc2-1` [camptothecin, S-(+)-camptothecin]: the inhibition at 0.5 µg/mL with RKO-E6 cells [2] (24 h) turned out to be 20%. Besides, the “p53, p21, MDM2 levels” value in the assay on p53 is reported as “caused p53 to accumulate”.

As for `COc1cccc2c1C(=O)c1c(O)c3c(c(O)c1C2=O)C[C@@](O)(C(=O)CO)C[C@@H]3O[C@H]1C[C@H](N)[C@H](O)[C@H](C)O1` [doxorubicin], the “resistance of RKO-E6 cells compared to RKO cells” value with RKO-E6 cells [2] is “two-fold to four-fold more resistant”. Besides, the inhibition at 0.5 µg/mL with RKO-E6 cells [2] (24 h) turned out to be 20%. The “p53, p21, MDM2 levels” value in the assay with p53 is recorded as “caused p53 to accumulate”.

A word on the EC50: it is the concentration at which the effect is half-maximal. Take `NNc1nnc(-c2ccccc2)c2ccccc12` [revertin-7]: in assay [3], the half-maximal effective concentration (EC50) came to 2 µg/mL (≈ 8.46 µM) and the “PC12 rescue: percent increase in viability in compound treated cells above DMSO treated” value (“PC12 rescue: percent increase” for short) is listed as 18%. Moreover, in the assay on N548 mutant cells (Rattus norvegicus), the maximal fold induction is 2 and the EC50 came out at 1 µg/mL.

With `CCCc1ccc(CC2=C(O)C(=O)c3ccccc3C2=O)cc1` [revertin-8], in assay [3], a half-maximal effect (EC50) was put at 2 µg/mL (≈ 6.53 µM) and the “PC12 rescue: percent increase” value is 15%. For the same molecule, in the assay with N548 mutant cells (Rattus norvegicus), the maximal fold induction is 3 and the EC50 was found to be 2 µg/mL.

Regarding `CCCCCCCCC(=O)N(Cc1ccco1)C(C)c1nc2ccccc2c(=O)n1-c1cc(C)ccc1C` (stereo not shown) [revertin-9], in assay [3], the response was half-maximal at 25 µg/mL (≈ 48.7 µM) (EC50) and the “PC12 rescue: percent increase” value was determined as 25%. Besides, in the assay with N548 mutant cells (Rattus norvegicus), the maximal fold induction turned out to be 2 and the EC50 is 1 µg/mL.

Turning to `CCCCc1ccc(C(=O)N(CCC(=O)N2CCC(Cc3ccccc3)CC2)Cc2ccco2)cc1` [revertin-11], in assay [3], the EC50 amounted to 30 µg/mL (≈ 61.6 µM) and the “PC12 rescue: percent increase” value amounted to 27%. Besides, in the assay on N548 mutant cells (Rattus norvegicus), the maximal fold induction was 2.5 and the EC50 stood at 2 µg/mL.

Regarding `COc1cc2c(cc1OC)C(C)N(C(=O)NCc1ccccc1)CC2` (stereo not shown) [revertin-22], the microtubule disruption entry in assay [4] is reported as “depolymerize microtubules”. Moreover, the “selectivity profile of cell death rescue in panel of htt expressing cell lines” value (shortened to “selectivity profile of cell death rescue”) in the assay with N548 mutant cells is “shared the selectivity profile with MTIs”. Also, in the assay on N548 mutant cells (Rattus norvegicus), the maximal fold induction was found to be 2.5 and the EC50 amounted to 1 µg/mL.

Consider `CC1CN(C(C)c2nc3ccccc3c(=O)n2-c2ccc(F)cc2)CCC1C(=O)C1CC1` (stereo not shown) [revertin-23], for which the microtubule disruption result in assay [4] is listed as “disrupt microtubules”. Besides, the “selectivity profile of cell death rescue” value with N548 mutant cells is “shared the selectivity profile with MTIs”. Besides, in the assay with N548 mutant cells (Rattus norvegicus), the maximal fold induction came out at 2.5 and the EC50 worked out at 2 µg/mL.

Turning to Colchicine [reference compound], in assay [4], the microtubule disruption entry was “depolymerize microtubules”. In addition, the “N548 Mut: Max, maximum rescue expressed as fold over DMSO treated N548 mutant cells” value with N548 mutant cells (0.5% IFS, 39° C., 3 d) is recorded as 2.5 fold. Moreover, in the assay on N548 mutant cells, the “selectivity profile of cell death rescue” value is listed as “rescued cell death in three htt expressing cell lines” and the concentration for a half-maximal effect (EC50) turned out to be 40 nM.

Turning to benzalkonium chloride, the “effect on doxorubicin's lethality in RKO-E6 cells” value with RKO-E6 cells [2] (co-treatment with 0.5 μg/ml doxorubicin, 24 h, in words) is “selectively increased doxorubicin's lethality”. Also, in the assay on RKO-E6 cells [2] (co-treatment with camptothecin, in words), the “effect on camptothecin's lethality” value was “did not synergize with camptothecin”. Also, the induction of apoptosis result in the assay on RKO-E6 cells [2] (in the absence of doxorubicin) is given as “did not induce apoptosis”. In addition, the “p53, p21, MDM2 levels” value in the assay with p53 was “did not upregulate p53, p21, or caspase 3”. In the assay with RKO-E6 cells [1], the “cell cycle effect in RKO-E6 cells” value was “did not induce cell cycle arrest”.
